From patent US9926297B2, “Bicyclic AZA compounds as muscarinic M1 receptor and/or M4 receptor agonists” (Heptares Therapeutics Limited, priority 2014, dated 2018)

Legend:
[1] = molecular target: T1, human muscarinic M1 receptor (Homo sapiens, UniProt P11229); experiment: Alphascreen Surefire phospho-ERK1/2 functional assay, M1; type: cell-based; settings: for % Emax cf. ACh, M1: relative to ACh
T1 sequence (P11229 1-460): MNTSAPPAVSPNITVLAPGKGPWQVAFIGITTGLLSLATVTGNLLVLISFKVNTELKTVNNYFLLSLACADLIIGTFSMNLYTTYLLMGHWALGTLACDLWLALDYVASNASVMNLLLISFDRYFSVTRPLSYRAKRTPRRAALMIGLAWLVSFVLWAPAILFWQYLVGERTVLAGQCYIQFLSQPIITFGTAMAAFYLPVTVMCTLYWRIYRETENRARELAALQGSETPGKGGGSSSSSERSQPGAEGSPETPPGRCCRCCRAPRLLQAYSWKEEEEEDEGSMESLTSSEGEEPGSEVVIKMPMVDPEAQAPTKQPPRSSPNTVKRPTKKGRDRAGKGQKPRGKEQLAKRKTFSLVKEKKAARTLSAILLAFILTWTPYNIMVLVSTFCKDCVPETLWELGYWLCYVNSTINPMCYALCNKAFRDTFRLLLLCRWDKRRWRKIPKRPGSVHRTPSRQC
Protocol: (§1) CHO cells stably expressing the human muscarinic M1, M2, M3 or M4 receptor were plated (25K/well) onto 96-well tissue culture plates in MEM-alpha+10% dialysed FBS. Once adhered, cells were serum-starved overnight. Agonist stimulation was performed by the addition of 5 μL agonist to the cells for 5 min (37° C.). Media was removed and 50 μL of lysis buffer added. After 15 min, a 4 μL sample was transferred to 384-well plate and 7 μL of detection mixture added. Plates were incubated for 2 h with gentle agitation in the dark and then read on a PHERAstar plate reader.
(§2) pEC50 and Emax figures were calculated from the resulting data for each receptor subtype.

[2] = molecular target: T2, human muscarinic M4 receptor (Homo sapiens, UniProt P08173); experiment: Alphascreen Surefire phospho-ERK1/2 functional assay, M4; type: cell-based; settings: for % Emax cf. ACh, M4: relative to ACh
T2 construct: expressed in transfected cells
T2 sequence (P08173 1-479): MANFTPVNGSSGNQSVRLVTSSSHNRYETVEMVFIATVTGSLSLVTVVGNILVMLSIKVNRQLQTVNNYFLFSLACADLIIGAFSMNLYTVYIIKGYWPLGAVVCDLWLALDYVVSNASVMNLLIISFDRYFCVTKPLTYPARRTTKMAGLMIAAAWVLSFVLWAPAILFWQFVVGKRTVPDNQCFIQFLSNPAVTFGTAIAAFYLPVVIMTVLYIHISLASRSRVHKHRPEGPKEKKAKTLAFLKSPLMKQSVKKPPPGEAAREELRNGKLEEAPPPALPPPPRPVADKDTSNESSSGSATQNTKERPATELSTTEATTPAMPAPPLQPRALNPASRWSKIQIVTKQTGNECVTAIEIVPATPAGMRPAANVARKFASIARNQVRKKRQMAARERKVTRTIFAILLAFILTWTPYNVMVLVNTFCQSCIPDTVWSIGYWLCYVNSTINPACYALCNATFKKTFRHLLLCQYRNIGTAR

[3] = test system: scopolamine-induced amnesia; experiment: Passive avoidance task, scopolamine-induced amnesia; type: in vivo
Protocol: Studies were carried out as described previously by Foley et al., (2004) Neuropsychopharmacology. In the passive avoidance task scopolamine administration (1 mg/kg, i.p.) at 6 hours following training rendered animals amnesic of the paradigm. A dose range of 3, 10, and 30 mg/kg (po) free base, administered 90 minutes prior to the training period via oral gavage, was examined.

[4] = molecular target: T3, human muscarinic M2 receptor (Homo sapiens, UniProt P08172); experiment: Alphascreen Surefire phospho-ERK1/2 functional assay, M2; settings: for pEC50 M2 / % Emax cf. ACh, M2: CHO cells stably expressing human M2; for pEC50 M2: phospho-ERK1/2, * = variable results; for % Emax cf. ACh, M2: relative to ACh
T3 sequence (P08172 1-466): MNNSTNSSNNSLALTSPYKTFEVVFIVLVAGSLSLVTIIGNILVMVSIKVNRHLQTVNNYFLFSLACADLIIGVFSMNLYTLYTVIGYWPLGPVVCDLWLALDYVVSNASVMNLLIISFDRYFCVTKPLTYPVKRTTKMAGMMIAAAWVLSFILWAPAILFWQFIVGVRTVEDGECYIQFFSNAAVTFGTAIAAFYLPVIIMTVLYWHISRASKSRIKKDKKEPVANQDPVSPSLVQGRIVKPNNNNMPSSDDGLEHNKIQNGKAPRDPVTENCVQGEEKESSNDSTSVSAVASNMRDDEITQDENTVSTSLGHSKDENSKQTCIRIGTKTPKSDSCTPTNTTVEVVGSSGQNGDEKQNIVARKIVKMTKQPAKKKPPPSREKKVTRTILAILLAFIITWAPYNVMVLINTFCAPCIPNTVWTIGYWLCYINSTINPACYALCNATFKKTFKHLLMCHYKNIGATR
Protocol: as §1, §2

[5] = molecular target: human muscarinic M3 receptor (Homo sapiens, UniProt P20309); experiment: Alphascreen Surefire phospho-ERK1/2 functional assay, M3; settings: for pEC50 M3 / % Emax cf. ACh, M3: CHO cells stably expressing human M3; for % Emax cf. ACh, M3: relative to ACh
human muscarinic M3 receptor, sequence (P20309 whole entry): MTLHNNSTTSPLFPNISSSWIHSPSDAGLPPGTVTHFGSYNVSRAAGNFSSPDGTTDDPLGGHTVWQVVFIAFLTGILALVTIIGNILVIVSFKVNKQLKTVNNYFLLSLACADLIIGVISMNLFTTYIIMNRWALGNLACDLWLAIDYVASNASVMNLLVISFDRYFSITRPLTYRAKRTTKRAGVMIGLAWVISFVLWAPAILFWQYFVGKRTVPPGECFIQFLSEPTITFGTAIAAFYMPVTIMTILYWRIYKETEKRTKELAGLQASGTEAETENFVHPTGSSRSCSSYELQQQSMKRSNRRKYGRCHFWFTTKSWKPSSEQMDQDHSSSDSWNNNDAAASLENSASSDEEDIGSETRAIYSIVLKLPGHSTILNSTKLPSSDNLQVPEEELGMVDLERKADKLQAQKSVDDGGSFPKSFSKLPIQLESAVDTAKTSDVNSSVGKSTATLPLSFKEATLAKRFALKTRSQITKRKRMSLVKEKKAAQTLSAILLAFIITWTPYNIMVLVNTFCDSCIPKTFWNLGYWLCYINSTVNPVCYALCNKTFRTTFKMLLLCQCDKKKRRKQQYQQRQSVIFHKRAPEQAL

[6] = CHO cells stably expressing human M1, phospho-ERK1/2, * = variable results
[7] = CHO cells stably expressing human M1
[8] = CHO cells stably expressing human M4, phospho-ERK1/2, * = variable results
[9] = CHO cells stably expressing human M4
[10] = phospho-ERK1/2, * = variable results

SMILES: CCOC(=O)N1CCC2(CC(N3CCC(n4cccn4)CC3)C2)C1 (single isomer, unassigned) [1-33 Isomer 2, ethyl 2-[4-(1H-pyrazol-1-yl)piperidin-1-yl]-6-azaspira[3.4]octane-6-carboxylate]
- EC50 ([1]; CHO cells stably expressing human M1, phospho-ERK1/2, * = variable results, read-out: pEC50 M1 (converted)): 25.1 nM
- Emax ([1]; CHO, read-out: % Emax cf. ACh, M1): 11%
- EC50 ([2]; CHO cells stably expressing human M4, phospho-ERK1/2, * = variable results, read-out: pEC50 M4 (converted)): 3.98 nM
- Emax ([2]; CHO, read-out: % Emax cf. ACh, M4): 118%
- reversal of scopolamine-induced amnesia ([3]; 3, 10 and 30 mg/kg po): reverse scopolamine-induced amnesia of the paradigm in a dose-dependent manner
- ED50 ([3]; po, 90 minutes prior to training, scopolamine 1 mg/kg i.p. 6 hours following training, read-out: approximate ED50, reversal of scopolamine-induced amnesia): ~10 mg/kg
- Emax ([4]; CHO, read-out: % Emax cf. ACh, M2): 49%
- Emax ([5]; CHO, read-out: % Emax cf. ACh, M3): 7%
- EC50 ([5]; pEC50 M3, CHO cells stably expressing human M3, phospho-ERK1/2, * = variable results): > 20000 nM

SMILES: CCOC(=O)N1CCC2(CC(N3CCC(C#N)(c4ccccn4)CC3)C2)C1 (single isomer, unassigned; isomer 1) [3-10 Isomer 1]
- pEC50 M1 [1, 6]: 5.9
- % Emax cf. ACh, M1 [1, 7]: 42%
- pEC50 M4 [2, 8]: 7.1
- % Emax cf. ACh, M4 [2, 9]: 71%
- pEC50 M2 [4]: < 4.7
- % Emax cf. ACh, M2 [4]: 3%
- pEC50 M3 [5, 10]: < 4.7
- % Emax cf. ACh, M3 [5]: 5%

SMILES: CCOC(=O)N1CCC2(CC(N3CCC(C#N)(c4ccccn4)CC3)C2)C1 (single isomer, unassigned; isomer 2) [3-10 Isomer 2]
- pEC50 M1 [1, 6]: 8.0
- % Emax cf. ACh, M1 [1, 7]: 90%
- pEC50 M4 [2, 8]: 8.9
- % Emax cf. ACh, M4 [2, 9]: 103%
- pEC50 M2 [4]: 7.0
- % Emax cf. ACh, M2 [4]: 96%
- pEC50 M3 [5, 10]: < 4.7
- % Emax cf. ACh, M3 [5]: 0%
